{
  "source": "ChEMBL document CHEMBL1148244",
  "about": "“Inactivation of gamma-aminobutyric acid aminotransferase by (S)-4-amino-4,5-dihydro-2-furancarboxylic acid does not proceed by the expected aromatization mechanism” (Bioorg Med Chem Lett, 2004)",
  "molecular_target": "4-aminobutyrate aminotransferase (Sus scrofa) (UniProt P80147)",
  "sequence (P80147 whole entry, looked up)": "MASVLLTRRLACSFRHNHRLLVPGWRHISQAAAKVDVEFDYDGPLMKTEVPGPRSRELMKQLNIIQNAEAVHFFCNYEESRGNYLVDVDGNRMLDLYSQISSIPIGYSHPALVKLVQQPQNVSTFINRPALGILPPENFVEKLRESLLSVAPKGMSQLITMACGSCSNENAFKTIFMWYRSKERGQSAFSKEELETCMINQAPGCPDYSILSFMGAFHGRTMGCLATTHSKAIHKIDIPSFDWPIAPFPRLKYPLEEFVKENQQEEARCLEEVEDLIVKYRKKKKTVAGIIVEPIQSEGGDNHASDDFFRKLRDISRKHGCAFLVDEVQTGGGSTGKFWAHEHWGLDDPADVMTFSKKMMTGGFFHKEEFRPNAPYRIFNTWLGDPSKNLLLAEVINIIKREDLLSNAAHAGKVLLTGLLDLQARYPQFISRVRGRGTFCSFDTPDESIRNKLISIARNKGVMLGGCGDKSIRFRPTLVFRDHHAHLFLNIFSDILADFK",
  "assay": "Kinact for pyridoxal 5'-phosphate (PLP)-dependent Gamma-amino-N-butyrate transaminase at pH 7.4",
  "data": [
    {"smiles": "NC1C=C(C(=O)O)OC1", "note": "(stereo unspecified)", "values": [
      {"measurement": "K inact", "result": 2.4, "unit": "min⁻¹"}
    ]}
  ]
}
